Laboratory results taken from US11547300B2, “Methods of treating and imaging tumor micrometastases using photoactive immunoconjugates” (priority 2014, dated 2023).

Assays:
OVCAR5 cells = conditions: cited from earlier work
EOC (NIH:OVCAR5) tumors = conditions: mouse, in vivo
Description: Micrometastatic mouse model. An orthotopic xenograft mouse model of human ovarian carcinomatosis was established in our laboratory with gynecologic oncologists (30). Athymic Swiss female Nu/Nu mice (20-25 grams and 6-8 weeks old; Cox Breeding Laboratories) were injected intraperitoneally (i.p.) with 16×10^6 NIH:OVCAR5 (EOC) cells in 2 mL phosphate-buffered saline. All experiments were conducted according to Massachusetts General Hospital Institutional Animal Care and Use Committee (IACUC) guidelines.

Row | tumor-to-bowel ratio (EOC (NIH:OVCAR5) tumors) | tumor-to-bowel ratio from fitting the pharmacokinetic data to a model (EOC (NIH:OVCAR5) tumors) | Compound | resistance relative to a platinum sensitive cell line (OVCAR5 cells) [fold]
1 |  |  | N.N.[Cl][Pt][Cl] [cisplatin] | 7
2 | 2.7 | 2.8 | verteporfin | 
